Test results: patent EP0165151A1, “Peptide derivatives as renin inhibitors, process for their preparation and their therapeutical application” (SANOFI, priority 1984, dated 1985)
Square brackets hold non-standard residues; d marks the D form. Peptide text beside a SMILES is read from it. * marks the point of attachment. Sta = CC(C)C[C@H](N)[C@@H](O)CC(=O)O; Isovaleryl = CC(C)CC(=O)*; Nle = CCCC[C@H](N)C(=O)O

Experiment: Solubility in water
Type: physicochemical
Details: pH : 7,4
Excerpt: Dans les mêmes conditions les composés SR 42406 sous forme de chlorhydrate et SR 43054 B possèdent une solubilité dans l'eau de 1 % et 4 % environ.

Structure (SMILES) | solubilité dans l'eau | solubilité dans l'eau (sous forme de chlorhydrate)
CCCC[C@H](NC(=O)[C@H](Cc1ccccc1)NC(=O)CC(C)C)C(=O)N[C@@H](CC(C)C)[C@@H](O)CC(=O)N[C@@H](C)C(=O)N[C@@H](CC(C)C)[C@@H](O)CC(=O)N[C@@H](CCCCN)C(=O)O [SR 42 654, iVa - Phe - Nle - Sta - Ala - Sta - Lys - OH] (Isovaleryl-F[Nle][Sta]A[Sta]K-OH) | soluble dans l'eau à environ % | –
CCCC[C@H](NC(=O)[C@H](Cc1ccccc1)NC(=O)CC(C)C)C(=O)N[C@@H](CC(C)C)[C@@H](O)CC(=O)N[C@@H](C)C(=O)N[C@@H](CC(C)C)[C@@H](O)CC(=O)N[C@@H](CCCNC(=N)N)C(=O)OC [SR 42406, iVa - Phe - Nle - Sta - Ala - Sta - Arg - OMe] (Isovaleryl-F[Nle][Sta]A[Sta]R-OMe) | – | ~1%
CCCC[C@H](NC(=O)[C@H](Cc1ccccc1)NC(=O)CC(C)C)C(=O)N[C@@H](CC(C)C)[C@@H](O)CC(=O)N[C@@H](C)C(=O)N[C@@H](CC(C)C)[C@@H](O)CC(=O)N[C@@H](CC(=O)O)C(=O)O [SR 43504 B, iVa-Phe-Nle-Sta-Ala-Sta-Asp-OH, Disel de trishydroxyméthyl-aminométhane] (Isovaleryl-F[Nle][Sta]A[Sta]D-OH) | ~4% | –
